What was measured:
wheat = assay: Test A pre-/postemergence herbicide test; format: in vivo, Triticum aestivum
Summary of the method: (§1)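 Visual injury ratings, 0 = no effect, 100 = complete control, taken ~10 days after treatment against untreated greenhouse controls. Preemergence: directed soil spray onto seeded loam/sand pots. Postemergence: spray onto plants at one- to two-leaf stage, 2–10 cm tall.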

giant foxtail = assay: Test A pre-/postemergence herbicide test; format: in vivo, Setaria faberii
Summary of the method: as §1

lambsquarters = assay: Test C pre-/postemergence herbicide test; format: in vivo, Chenopodium album; details: Preemergence
Description: (§2) Seeds of plant species selected from blackgrass (Alopecurus myosuroides), ryegrass, Italian (Italian ryegrass, Lolium multiflorum), wheat (winter wheat, Triticum aestivum), galium (catchweed bedstraw, Galium aparine), corn (Zea mays), crabgrass, large (large crabgrass, Digitaria sanguinalis), foxtail, giant (giant foxtail, Setaria faberii), johnsongrass (Sorghum halepense), lambsquarters (Chenopodium album), morningglory (Ipomoea coccinea), nutsedge, yellow (yellow nutsedge, Cyperus esculentus), pigweed (Amaranthus retroflexus), ragweed (common ragweed, Ambrosia elatior), soybean (Glycine max), barnyardgrass (Echinochloa crus-galli), oilseed rape (Brassica napus), waterhemp (common waterhemp, Amaranthus rudis), kochia (Kochia scoparia), oat, wild (wild oat, Avena fatua), surinam grass (Brachiaria decumbens), foxtail, green (green foxtail, Setaria viridis), goosegrass (Eleusine indica), bromegrass, downy (downy bromegrass, Bromus tectorum), nightshade (eastern black nightshade, Solanum ptycanthum), cocklebur (common cocklebur, Xanthium strumarium), cupgrass, woolly (woolly cupgrass, Eriochloa villosa), bermudagrass (Cynodon dactylon), sunflower, (common oilseed sunflower, Helianthus annuus), Russian thistle (Salsola kali) and velvetleaf (Abutilon theophrasti) were planted into a blend of loam soil and sand and treated preemergence with test chemicals formulated in a non-phytotoxic solvent mixture which included a surfactant. At the same time, plants selected from these crop and weed species and also barley (winter barley, Hordeum vulgare), […]), chickweed (common chickweed, Stellaria media), deadnettle (henbit deadnettle, Lamium amplexicaule), and canarygrass (littleseed canarygrass, Phalaris minor) were planted in pots containing Redi-Earth® planting medium (Scotts Company, 14111 Scottslawn Road, Marysville, Ohio 43041) comprising spaghnum peat moss, vermiculite, wetting agent and starter nutrients and treated with postemergence applications of test chemicals formulated in the same manner. Plants ranged in height from 2 to 18 cm (1- to 4-leaf stage) for postemergence treatments. Treated plants and controls were maintained in a greenhouse for 13 to 15 days, after which time all species were compared to controls and visually evaluated. Plant response ratings, summarized in Table C, are based on a scale of 0 to 100 where 0 is no effect and 100 is complete control. A dash (-) response means no test result.

johnsongrass = assay: Test C pre-/postemergence herbicide test; format: in vivo, Sorghum halepense; details: Preemergence
Description: as §2

wheat (winter wheat) = assay: Test C pre-/postemergence herbicide test; format: in vivo, Triticum aestivum; details: Preemergence
Description: as §2

morningglory = assay: Test C pre-/postemergence herbicide test; format: in vivo, Ipomoea coccinea; details: Preemergence
Description: as §2

pigweed = assay: Test C pre-/postemergence herbicide test; format: in vivo, Amaranthus retroflexus; details: Preemergence
Description: as §2

galium = assay: Test C pre-/postemergence herbicide test; format: in vivo, Galium aparine; details: Preemergence; for Galium plant response rating: 31 g ai/ha
Description: as §2

foxtail, giant = assay: Test C pre-/postemergence herbicide test; format: in vivo, Setaria faberii; details: Preemergence; for Foxtail, Giant plant response rating: 31 g ai/ha
Description: as §2

[1] = Postemergence, 500 g ai/ha, 0 to 100 scale (0 no effect, 100 complete control)
[2] = Preemergence, 125 g ai/ha, visual rating on 0 to 100 scale (0 no effect, 100 complete control)
[3] = preemergence, 500 g ai/ha, 0 to 100 scale
[4] = Postemergence, 125 g ai/ha, 0 to 100 scale, 0 no effect, 100 complete control
[5] = 125 g ai/ha, scale 0 to 100 (0 no effect, 100 complete control)
[6] = scale 0 to 100 (0 no effect, 100 complete control)
[7] = 250 g ai/ha, scale 0 to 100 (0 no effect, 100 complete control)
[8] = 31 g ai/ha, scale 0 to 100, 0 is no effect and 100 is complete control
[9] = scale 0 to 100, 0 is no effect and 100 is complete control
[10] = Postemergence, 1000 g ai/ha, 0 to 100 scale (0 no effect, 100 complete control)
[11] = Preemergence, 1000 g ai/ha, visual rating on 0 to 100 scale (0 no effect, 100 complete control), approx. 10 days

SMILES	Plant response rating, Wheat (wheat; [1])	Wheat plant response rating (wheat; [2])	Plant response rating, Wheat (wheat; [3])	Plant response rating, Foxtail, Giant (giant foxtail; [4])	Plant response rating, Foxtail, Giant (giant foxtail; [1])	Foxtail, Giant plant response rating (giant foxtail; [2])	Plant response rating, Foxtail, Giant (giant foxtail; [3])	Plant response rating, Lambsquarters (lambsquarters; 62 g ai/ha, scale 0 to 100)	Plant response rating, Lambsquarters (lambsquarters; [5])	Plant response rating, Wheat (wheat; [4])	Plant response rating, Johnsongrass (johnsongrass; 62 g ai/ha, scale 0 to 100)	Plant response rating, Wheat (wheat (winter wheat); 62 g ai/ha, scale 0 to 100)	Plant response rating, Wheat (wheat (winter wheat); [5])	Plant response rating, Morningglory (morningglory; 62 g ai/ha, scale 0 to 100)	Plant response rating, Morningglory (morningglory; [5])	Plant response rating, Pigweed (pigweed; 62 g ai/ha, scale 0 to 100)	Plant response rating, Galium (galium; 62 g ai/ha, scale 0 to 100)	Plant response rating, Foxtail, Giant (foxtail, giant; 62 g ai/ha, scale 0 to 100)	Plant response rating, Foxtail, Giant (foxtail, giant; [5])	Plant response rating, Foxtail, Giant (foxtail, giant; [7])	further results
O=C1NCC(c2cccc(C(F)(F)F)c2)C1C(=O)Nc1ccccc1F (racemic) [Compound 3]	50	40	60	60	80	90	90														
O=C1NCC(c2ccc(Cl)c(F)c2)C1C(=O)Nc1ccccc1F (stereo not drawn) [Compound 53]	0	0	20	30	80	90	90	0	40	0	0	0	0	0	0	25	0	65	65	85	Plant response rating, Johnsongrass (johnsongrass; [5]): 0; Plant response rating, Pigweed (pigweed; [5]): 25; Galium plant response rating (galium; [6]): 0; Plant response rating, Galium (galium; [5]): 0; Plant response rating, Galium (galium; [7]): 70; Foxtail, Giant plant response rating (foxtail, giant; [6]): 40
O=C1NCC(c2ccc(F)c(Cl)c2)C1C(=O)Nc1cccc(F)c1F (stereo not drawn) [Compound 59]	60	0	0	80	80	80	90	0	0	0	0	0	0	0	15	35	5	85	85	90	Plant response rating, Johnsongrass (johnsongrass; [5]): 0; Galium plant response rating (galium; [6]): 0; Plant response rating, Galium (galium; [5]): 30; Plant response rating, Galium (galium; [7]): 85; Foxtail, Giant plant response rating (foxtail, giant; [6]): 50
O=C1NCC(c2cccc(Br)c2)C1C(=O)Nc1cccc(F)c1F (stereo not drawn) [Compound 64]	40	0	0	70	80	80	90	10	30	0	40	5	15	20	20	0	0	80	90	98	Plant response rating, Johnsongrass (johnsongrass; [5]): 75; Plant response rating, Pigweed (pigweed; [5]): 30; Galium plant response rating (galium; [6]): 0; Plant response rating, Galium (galium; [5]): 0; Plant response rating, Galium (galium; [7]): 0; Foxtail, Giant plant response rating (foxtail, giant; [6]): 50
O=C1NCC(c2ccc(F)c(F)c2)C1C(=O)Nc1cccc(F)c1 (racemic) [Compound 12]	20	0	20	60	80	70	90			0											
O=C1NCC(c2cccc(Br)c2)C1C(=O)Nc1ccccc1F (stereo not drawn) [Compound 66]	30	0	20	70	80	80	90	0	0	0		0	5	25	35	0	0	75	85	95	Lambsquarters plant response rating (lambsquarters; [8]): 0; Johnsongrass plant response rating (johnsongrass; [8]): 30; Wheat plant response rating (wheat (winter wheat); [8]): 0; Morningglory plant response rating (morningglory; [8]): 15; Pigweed plant response rating (pigweed; [8]): 0; Plant response rating, Pigweed (pigweed; [5]): 0; Galium plant response rating (galium; [9]): 0; Plant response rating, Galium (galium; [5]): 0; Plant response rating, Galium (galium; [7]): 0; Foxtail, Giant plant response rating (foxtail, giant; [9]): 20
Cc1ccccc1NC(=O)C1C(=O)NCC1c1cc(F)c(F)c(F)c1 (racemic) [Compound 35]								0	0		0	0	10	10	10	0	0	90	98	98	Plant response rating, Wheat (wheat; [10]): 40; Plant response rating, Wheat (wheat; [11]): 0; Plant response rating, Johnsongrass (johnsongrass; [5]): 0; Plant response rating, Pigweed (pigweed; [5]): 0; Plant response rating, Foxtail, Giant (giant foxtail; [10]): 90; Plant response rating, Foxtail, Giant (giant foxtail; [11]): 90; Galium plant response rating (galium; [6]): 0; Plant response rating, Galium (galium; [5]): 5; Plant response rating, Galium (galium; [7]): 30; Foxtail, Giant plant response rating (foxtail, giant; [6]): 80
O=C1NCC(c2ccc(F)cc2)C1C(=O)Nc1ccccc1F (racemic) [Compound 16]	50	0	0	60	90	90	90			20	0	0	0	0	0	0	0	70	90	95	Plant response rating, Johnsongrass (johnsongrass; [5]): 0; Plant response rating, Pigweed (pigweed; [5]): 0; Galium plant response rating (galium; [6]): 0; Foxtail, Giant plant response rating (foxtail, giant; [6]): 0
